target: Human Factor D (Homo sapiens (Human), UniProt P00746); assay: Human Factor D Assay; assay type: biochemical; conditions: Table 7; read-out: IC5 (Stars)
In short: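 Serum-purified human factor D (80 nM final) preincubated with compound 5 min at room temperature in 50 mM Tris, 1 M NaCl, pH 7.5. Z-L-Lys-SBzl and DTNB added at 100 μM each; A405 followed every 30 s for 30 min. IC50 by nonlinear regression of rates.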

Chain of Human Factor D (P00746 26-253): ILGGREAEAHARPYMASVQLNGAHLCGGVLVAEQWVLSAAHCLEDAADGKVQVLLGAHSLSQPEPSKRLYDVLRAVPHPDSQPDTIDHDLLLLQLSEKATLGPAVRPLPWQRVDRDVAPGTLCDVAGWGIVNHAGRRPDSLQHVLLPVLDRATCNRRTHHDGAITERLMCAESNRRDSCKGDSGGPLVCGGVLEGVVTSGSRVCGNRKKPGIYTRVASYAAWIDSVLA

| IC50 | SMILES |
| --- | --- |
| > 10 µM | COc1ncc(-c2cc(CC(=O)N3C[C@H](F)C[C@H]3C(=O)Nc3cccc(Br)n3)cc(-c3cnc(OC)nc3)c2)cn1 [Compound T-108, (2S,4R)-1-(2-(3,5-bis(2-methoxypyrimidin-5-yl)phenyl)acetyl)-N-(6-bromopyridin-2-yl)-4-fluoropyrrolidine-2-carboxamide] |
| > 10 µM | COc1ncc(-c2cc(CC(=O)N3[C@H](C(=O)Nc4nc(Br)ccc4C)C[C@@]4(C)C[C@@H]34)cc(-c3cnc(OC)nc3)c2)cn1 [Compound T-109, (1R,3S,5R)-2-(2-(3,5-bis(2-methoxypyrimidin-5-yl)phenyl)acetyl)-N-(6-bromo-3-methylpyridin-2-yl)-5-methyl-2-azabicyclo[3.1.0]hexane-3-carboxamide] |
| > 10 µM | COc1ncc(-c2cc(CC(=O)N3C[C@H](F)C[C@H]3C(=O)Nc3cccc(-c4ccccc4Cl)c3F)cc(-c3cnc(OC)nc3)c2)cn1 [Compound T-110, (2S,4R)-1-(2-(3,5-bis(2-methoxypyrimidin-5-yl)phenyl)acetyl)-N-(2′-chloro-2-fluoro-[1,1′-biphenyl]-3-yl)-4-fluoropyrrolidine-2-carboxamide] |
| 1 to 10 µM | Cc1ncc(-c2cc(CC(=O)N3C[C@H](F)C[C@H]3C(=O)Nc3cccc(Br)n3)cc(C(N)=O)c2)cn1 [Compound T-111, (2S,4R)-N-(6-bromopyridin-2-yl)-1-(2-(3-carbamoyl-5-(2-methylpyrimidin-5-yl)phenyl)acetyl)-4-fluoropyrrolidine-2-carboxamide] |
| < 1 µM | Cc1ncc(-c2cc(CC(=O)N3C[C@H](F)C[C@H]3C(=O)Nc3cccc(-c4ccccc4Cl)c3F)cc(C(N)=O)c2)cn1 [Compound T-112, (2S,4R)-1-(2-(3-carbamoyl-5-(2-methylpyrimidin-5-yl)phenyl)acetyl)-N-(2′-chloro-2-fluoro-[1,1′-biphenyl]-3-yl)-4-fluoropyrrolidine-2-carboxamide] |
| 1 to 10 µM | Cc1ncc(-c2cc(CC(=O)N3[C@H](C(=O)Nc4nc(Br)ccc4C)C[C@@]4(C)C[C@@H]34)cc(C(N)=O)c2)cn1 [Compound T-113, (1R,3S,5R)-N-(6-bromo-3-methylpyridin-2-yl)-2-(2-(3-carbamoyl-5-(2-methylpyrimidin-5-yl)phenyl)acetyl)-5-methyl-2-azabicyclo[3.1.0]hexane-3-carboxamide] |
| 1 to 10 µM | Cc1ncc(-c2cc(C#N)cc(CC(=O)N3C[C@H](F)C[C@H]3C(=O)Nc3cccc(Br)n3)c2)cn1 [Compound T-114, (2S,4R)-N-(6-bromopyridin-2-yl)-1-(2-(3-cyano-5-(2-methylpyrimidin-5-yl)phenyl)acetyl)-4-fluoropyrrolidine-2-carboxamide] |
| 1 to 10 µM | Cc1ncc(-c2cc(C#N)cc(CC(=O)N3[C@H](C(=O)Nc4nc(Br)ccc4C)C[C@@]4(C)C[C@@H]34)c2)cn1 [Compound T-115, (1R,3S,5R)-N-(6-bromo-3-methylpyridin-2-yl)-2-(2-(3-cyano-5-(2-methylpyrimidin-5-yl)phenyl)acetyl)-5-methyl-2-azabicyclo[3.1.0]hexane-3-carboxamide] |
| < 1 µM | Cc1ncc(-c2cc(C#N)cc(CC(=O)N3C[C@H](F)C[C@H]3C(=O)Nc3cccc(-c4ccccc4Cl)c3F)c2)cn1 [Compound T-116, (2S,4R)-N-(2′-chloro-2-fluoro-[1,1′-biphenyl]-3-yl)-1-(2-(3-cyano-5-(2-methylpyrimidin-5-yl)phenyl)acetyl)-4-fluoropyrrolidine-2-carboxamide] |
| > 10 µM | Cc1ncc(-c2cc(CC(=O)N3[C@H](C(=O)Nc4nc(Br)ccc4C)C[C@@]4(C)C[C@@H]34)cc(-c3cnc(O)nc3)c2)cn1 [Compound T-117, (1R,3S,5R)-N-(6-bromo-3-methylpyridin-2-yl)-2-(2-(3-(2-hydroxypyrimidin-5-yl)-5-(2-methylpyrimidin-5-yl)phenyl)acetyl)-5-methyl-2-azabicyclo[3.1.0]hexane-3-carboxamide] |
| > 10 µM | Cc1ncc(-c2cc(CC(=O)N3C[C@H](F)C[C@H]3C(=O)Nc3cccc(-c4ccccc4Cl)c3F)cc(-c3cnc(O)nc3)c2)cn1 [Compound T-118, (2S,4R)-N-(2′-chloro-2-fluoro-[1,1′-biphenyl]-3-yl)-4-fluoro-1-(2-(3-(2-hydroxypyrimidin-5-yl)-5-(2-methylpyrimidin-5-yl)phenyl)acetyl)pyrrolidine-2-carboxamide] |
| 1 to 10 µM | Cc1ncc(-c2cc(CC(=O)N3C[C@H](F)C[C@H]3C(=O)Nc3cccc(-c4ccccc4Cl)c3F)cc(OCC(=O)O)c2)cn1 [Compound T-120, 2-(3-(2-((2S,4R)-2-((2′-chloro-2-fluoro-[1,1′-biphenyl]-3-yl)carbamoyl)-4-fluoropyrrolidin-1-yl)-2-oxoethyl)-5-(2-methylpyrimidin-5-yl)phenoxy)acetic acid] |

| SMILES | IC50 |
| --- | --- |
| C#CCNC(=O)c1nn(CC(=O)N2[C@H](C(=O)Nc3nc(Br)ccc3C)C[C@@]3(C)C[C@@H]23)c2ccc(-c3cnc(C)nc3)cc12 [Compound T-121, 1-(2-((1R,3S,5R)-3-((6-bromo-3-methylpyridin-2-yl)carbamoyl)-5-methyl-2-azabicyclo[3.1.0]hexan-2-yl)-2-oxoethyl)-5-(2-methylpyrimidin-5-yl)-N-(prop-2-yn-1-yl)-1H-indazole-3-carboxamide] | < 1 µM |
| Cc1ccc(Br)nc1NC(=O)[C@@H]1C[C@@]2(CNC(=O)COCCOCCNC(=O)COCCOCCNC(=O)CC[C@H](NC(=O)CCCCCCCCCCCCCCCCC(=O)O)C(=O)O)C[C@H]2N1C(=O)Cn1nc(C(N)=O)c2ccc(C(=O)NS(=O)(=O)C3CC3)cc21 [Compound T-126, (S)-1-((1R,3S,5R)-3-((6-bromo-3-methylpyridin-2-yl)carbamoyl)-2-(2-(3-carbamoyl-6-((cyclopropylsulfonyl)carbamoyl)-1H-indazol-1-yl)acetyl)-2-azabicyclo[3.1.0]hexan-5-yl)-24-carboxy-3,12,21,26-tetraoxo-5,8,14,17-tetraoxa-2,11,20,25-tetraazatritetracontan-43-oic acid] | < 1 µM |
| CC(=O)c1nn(CC(=O)N2[C@H](C(=O)Nc3nc(Br)ccc3C)C[C@@]3(CNC(=O)COCCOCCNC(=O)COCCOCCNC(=O)CCCCCCCCCCCCCCCCC(=O)O)C[C@@H]23)c2ccc(OC(=O)NC3CC3)cc12 [Compound T-128, 1-((1R,3S,5R)-2-(2-(3-acetyl-5-((cyclopropylcarbamoyl)oxy)-1H-indazol-1-yl)acetyl)-3-((6-bromo-3-methylpyridin-2-yl)carbamoyl)-2-azabicyclo[3.1.0]hexan-5-yl)-3,12,21-trioxo-5,8,14,17-tetraoxa-2,11,20-triazaoctatriacontan-38-oic acid] | < 1 µM |
| COC(=O)c1cc2c(cc1-c1cnc(C)nc1)c(C(C)=O)nn2CC(=O)N1[C@H](C(=O)Nc2nc(Br)ccc2C)C[C@@]2(C)C[C@@H]12 [Compound T-129, methyl 3-acetyl-1-(2-((1R,3S,5R)-3-((6-bromo-3-methylpyridin-2-yl)carbamoyl)-5-methyl-2-azabicyclo[3.1.0]hexan-2-yl)-2-oxoethyl)-5-(2-methylpyrimidin-5-yl)-1H-indazole-6-carboxylate] | < 1 µM |
| CC(=O)c1nn(CC(=O)N2C[C@H](F)C[C@H]2C(=O)Nc2nc(Br)ccc2C)c2cc(OCP(=O)(O)O)ccc12 [Compound T-130, (((3-acetyl-1-(2-((2S,4R)-2-((6-bromo-3-methylpyridin-2-yl)carbamoyl)-4-fluoropyrrolidin-1-yl)-2-oxoethyl)-1H-indazol-6-yl)oxy)methyl)phosphonic acid] | < 1 µM |
